SMILES strings stand for the structures.

Common to all, as to type: cell-based
One assay has as its target T1, PUP2 (Arabidopsis thaliana, UniProt Q94GB1).
T1 construct: expressed in transfected cells; host or cells: Saccharomyces cerevisiae (inferred)
T1 sequence (Q94GB1 1-347 isoform Q94GB1-2): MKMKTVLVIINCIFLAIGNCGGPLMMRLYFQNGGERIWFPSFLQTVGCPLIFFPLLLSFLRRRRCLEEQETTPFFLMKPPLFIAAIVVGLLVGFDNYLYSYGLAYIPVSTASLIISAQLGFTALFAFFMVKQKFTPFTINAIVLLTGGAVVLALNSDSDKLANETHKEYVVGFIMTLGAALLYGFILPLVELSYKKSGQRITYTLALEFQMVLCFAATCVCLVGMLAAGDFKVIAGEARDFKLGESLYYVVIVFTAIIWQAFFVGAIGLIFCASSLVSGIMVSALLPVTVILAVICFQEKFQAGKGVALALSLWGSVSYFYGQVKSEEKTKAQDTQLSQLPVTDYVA
As to the kind of experiment: Adenine transport by PUP2. How it is done: (§1) Substrate solution: For the substrate solution what is concerned is a 100 mM sodium phosphate buffer pH 4.5 with 1% glucose and 9.25 Bq/μl of radioactively labelled substrate (25–100 μM [^14C] adenine or [^14C] cytosine). In addition the substrate solution contains the unlabelled substrate, possible inhibitors and competitors in double end-concentration. For estimation of the optimum pH the pH value of the sodium phosphate buffer is also changed. When the influence of glucose on the uptake rate is measured neither the cell suspension nor the substrate solution contains glucose. Glucose is only added after starting the uptake measurements at the commencement of measuring at an end-concentration of 1%.

A further assay deals with T2, FCY2 transporter (Saccharomyces cerevisiae, UniProt P17064).
T2 construct: in comparison to the yeast's own FCY2 transporter; endogenous in cells
T2 sequence (P17064 1-533): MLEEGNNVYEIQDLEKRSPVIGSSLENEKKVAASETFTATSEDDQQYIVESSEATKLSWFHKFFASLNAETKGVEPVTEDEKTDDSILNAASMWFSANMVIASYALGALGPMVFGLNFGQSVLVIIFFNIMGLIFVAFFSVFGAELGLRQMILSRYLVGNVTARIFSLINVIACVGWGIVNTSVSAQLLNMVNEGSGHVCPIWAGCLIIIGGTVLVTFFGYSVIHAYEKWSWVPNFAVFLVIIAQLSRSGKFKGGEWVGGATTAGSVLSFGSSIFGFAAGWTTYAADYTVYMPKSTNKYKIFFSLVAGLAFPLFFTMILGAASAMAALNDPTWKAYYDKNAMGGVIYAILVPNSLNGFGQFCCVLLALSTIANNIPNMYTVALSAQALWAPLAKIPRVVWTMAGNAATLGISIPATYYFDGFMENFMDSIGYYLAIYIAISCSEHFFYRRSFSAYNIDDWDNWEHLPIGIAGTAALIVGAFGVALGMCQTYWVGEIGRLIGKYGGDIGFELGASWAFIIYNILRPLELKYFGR
Description: Adenine uptake by the yeast's own FCY2 transporter (competition experiment reference). The note with it: substrate concentration 25 μM. How it is done:
For measuring the rate of uptake the yeast strains MG887ura3^−::pFL61, MG887ura3^−::pFL61-PUP1 and their original strain Σ1278b (Dubois & Grenson, 1979, Mol. Gen. Genet. 175, 67–76) were cultured in complete medium (YPD) without uracil and with 2% glucose as carbon source up to an OD600 of 0.6 at 28° C. The cells were harvested at 3000 g, washed twice with water and brought to an OD600 of 12 with sodium phosphate buffer (100 mM, pH 4.5), 1% glucose. The cell suspension was stored in 100 μl portions on ice up to the beginning of the uptake measurements. Before the start of the uptake measurements the cells were pre-incubated at 30° C. for 2 minutes. The reaction was then started, by which 100 μl of radioactively labelled substrate solution was added to 100 μl cell suspension. […] The radioactivity on the filters was finally ascertained in a liquid scintillation counter.
Substrate solution: For the substrate solution what is concerned is a 100 mM sodium phosphate buffer pH 4.5 with 1% glucose and 9.25 Bq/μl of radioactively labelled substrate (25–100 μM [^14C] adenine or [^14C] cytosine). […] When the influence of glucose on the uptake rate is measured neither the cell suspension nor the substrate solution contains glucose. […]

The next assay has as its target PUP1 (Arabidopsis thaliana, UniProt Q9FZ96, S63G). Description: Voltage and current measurement in Xenopus oocytes expressing PUP1. More on the design: a primer was used which demolishes the STOP codon of PUP1 and simultaneously inserts a NotI excision site; expressed in transfected cells; host or cells: Xenopus oocytes injected with in vitro transcribed RNA. How it is done:
The one-way directed currents are measured as soon as adenine is added. The current strength is dependent on the concentration (bars indicate the current on the ordinate and the time on the abscissa).
The cDNA for PUP1 was excised with NotI and cloned in an oocyte expression vector containing untranslated 5′ and 3′ regions of the β-globin from Xenopus. The cDNA was then replicated by means of PCR. SP6 (from the oocyte vector) was used as upstream primer, as downstream primer a primer was used which demolishes the STOP codon of PUP1 and simultaneously inserts a NotI excision site. This PCR fragment was excised by NotI and HindIII and ligated into an oocyte expression vector which in addition contains behind the NotI excision site the gene for GFP (“green fluorescent protein” from the jellyfish). In that way an open reading-frame is constructed for a fusion protein from PUP1 and GFP. By insertion of the NotI excision site a linker with three base pairs coding for alanine is constructed. The plasmid was linearized with MIuI, and RNA was transcribed in vitro by means of SP6 polymerase and absorbed into water to about 1 ng/nl. Each oocyte (ripening stage 5 to 6) was injected with 50 nl. […]
For voltage measurement a glass electrode filled with 3M KCl was stuck into the oocyte. With a Dagan amplifier the potential was measured relative to the reference electrode. […]

In assay [1] the target is T3, PUP1 nuclear base transporter (Arabidopsis thaliana, UniProt Q9FZ96).
T3 construct: The PUP1 protein expressed by the yeast strain MG887ura3^−::pFL61-PUP1; expressed in transfected cells; host or cells: Saccharomyces cerevisiae MG887ura3- (fcy2), plasmid pFL61-PUP1
T3 sequence (Q9FZ96 whole entry S63G): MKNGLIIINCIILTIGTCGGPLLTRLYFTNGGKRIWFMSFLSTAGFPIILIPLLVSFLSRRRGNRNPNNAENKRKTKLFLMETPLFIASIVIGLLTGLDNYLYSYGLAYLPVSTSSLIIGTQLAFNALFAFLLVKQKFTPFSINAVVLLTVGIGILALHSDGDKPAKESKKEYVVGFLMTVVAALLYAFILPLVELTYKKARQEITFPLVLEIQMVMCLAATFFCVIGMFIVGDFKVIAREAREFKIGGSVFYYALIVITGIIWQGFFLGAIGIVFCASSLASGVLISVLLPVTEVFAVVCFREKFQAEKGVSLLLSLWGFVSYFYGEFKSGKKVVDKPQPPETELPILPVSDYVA
As to the kind of experiment: Uptake of radioactively labelled adenine and cytosine by yeast strain MG887ura3-::pFL61-PUP1. The note with it: initial concentration medium 200 μM; intracellular, cell volume estimated as four times the dry weight. How it is done: (§2) For measuring the rate of uptake the yeast strains MG887ura3^−::pFL61, MG887ura3^−::pFL61-PUP1 and their original strain Σ1278b (Dubois & Grenson, 1979, Mol. Gen. Genet. 175, 67–76) were cultured in complete medium (YPD) without uracil and with 2% glucose as carbon source up to an OD600 of 0.6 at 28° C. The cells were harvested at 3000 g, washed twice with water and brought to an OD600 of 12 with sodium phosphate buffer (100 mM, pH 4.5), 1% glucose. The cell suspension was stored in 100 μl portions on ice up to the beginning of the uptake measurements. Before the start of the uptake measurements the cells were pre-incubated at 30° C. for 2 minutes. The reaction was then started, by which 100 μl of radioactively labelled substrate solution was added to 100 μl cell suspension. The reaction mixture was incubated at 30° C. and after 30, 60, 120 and 180 seconds in each case 50 μl of suspension was withdrawn and placed in 4 ml of ice-cold water (in measurements over 180 seconds more cell suspension and substrate solution were correspondingly added). The cells were absorbed on to glass fibre filters and washed with 4 ml of ice-cold water. The radioactivity on the filters was finally ascertained in a liquid scintillation counter.
as §1
(§3) In Table 1 the uptake of radioactively labelled adenine and cytosine mediated by the PUP1 nuclear base transporter is indicated by the yeast strain MG887ura3^−::pFL61-PUP1. For calculation of the intracellular concentration the cell volume is estimated as four times the dry weight (Ninnemann et al., 1994, EMBO J. 15, 3464–3471). The uptake occurs against a concentration gradient.

Assay [2] addresses T4, PUP1 nuclear base transporter (Arabidopsis thaliana, UniProt Q9FZ96, S63G).
T4 construct: The PUP1 protein expressed by the yeast strain MG887ura3^−::pFL61-PUP1; expressed in transfected cells; host or cells: Saccharomyces cerevisiae MG887ura3- (fcy2), plasmid pFL61-PUP1
The assay is described as above. As for the experimental part:
as §2, §1, §3

T4 sequence (Q9FZ96 whole entry S63G): as above
PUP1, sequence (Q9FZ96 whole entry S63G): as above

In the case of `Nc1ncnc2nc[nH]c12` [Adenine, adenine], on PUP2, the “Transport by PUP2” value is “in a position to transport adenine”. In addition, the “Uptake of radioactively labelled adenine (set at 100%)” value on FCY2 transporter is recorded as 0.9 nmol.min^−1 .mg^−1 dry weight; in assay [2] (substrate concentration 25 μM, PUP1 expressed in yeast), 1.7 nmol.min^−1 .mg^−1 dry weight. Moreover, the “Effect on oocyte membrane potential” value at PUP1 (adenine in the bath solution, resting potential about -30 mV at pH 7.3) is recorded as “provokes depolarization of the oocyte”. Further, the Effect on current result on PUP1 (oocytes held at a voltage of -80 mV) is listed as “induces a current in one direction”. Moreover, the “End conc Cells” value in assay [1] is 2350 µM. The Enrichment factor in assay [2] (cells versus medium, initial concentration medium 200 μM) is 15. In addition, the “End conc. Medium” value in assay [2] (initial concentration medium 200 μM, yeast strain MG887ura3-::pFL61-PUP1) came out at 155 µM.

The record behind these values is patent US7179954B1, “Isolated nucleic acids coding for a nuclear base transporter and uses thereof” (Carnegie Insitution of Washington, priority 1999, dated 2007).
